Assay results as given in the supplement of paper PMC11003180.

How the values were obtained:
Assay in all cases: drug sensitivity score (DSS) from 5-dose viability curve (DSS (area-based score, 0 = no response)); higher = more sensitive (stronger viability inhibition); extreme values may be limits of the assay
[1] = system: MDCK wild-type + doxycycline; settings: doxycycline: 10 ng/mL; 72 h
Method in brief: (§1)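 Two MDCK lines, parental and doxycycline-inducible, received doxycycline at 10 ng/mL in the medium before being plated at 2000 cells/well onto a pre-spotted 384-well oncology library of 528 drugs at five doses (1-10,000 nM). Incubation lasted 72 h at 37 °C. Viability was read by CellTiter-Glo luminescence, scaled per plate between vehicle and positive controls, and converted to drug sensitivity scores through Breeze curve fitting.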

[2] = system: MDCK p60AmotL2-inducible + doxycycline (p60AmotL2 expressing); settings: doxycycline: 10 ng/mL; 72 h
Method in brief: as §1

[3] = system: MDCK wild-type - doxycycline; settings: doxycycline: none; 72 h
Method in brief: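 Parental MDCK cells without doxycycline were dispensed at 2000 cells/well onto pre-spotted 384-well plates. The plates held an oncology library of 528 drugs at five doses (1-10,000 nM) and were incubated 72 h at 37 °C. Viability was read as CellTiter-Glo luminescence and scaled per plate between vehicle and positive controls. Drug sensitivity scores came from dose-response curve fits in the Breeze pipeline.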

| Structure (SMILES) | drug sensitivity score [1] | drug sensitivity score [2] | drug sensitivity score [3] |
| --- | --- | --- | --- |
| O=C(O)c1ccc(CN2CCC(CN[C@@H]3C[C@H]3c3ccccc3)CC2)cc1 | 0 | 0 | 0 |
| Cc1[nH]c2ccccc2c1CCNCc1ccc(/C=C/C(=O)NO)cc1 [Panobinostat] | 12.5 | 15 | 15.2 |
| CC(C)(C)C[C@@H]1N[C@@H](C(=O)N[C@H]2CC[C@H](O)CC2)[C@H](c2cccc(Cl)c2F)[C@]12C(=O)Nc1cc(Cl)ccc12 | 4.7 | 7.2 | 2.9 |
| Cc1sc2c(c1C)C(c1ccc(Cl)cc1)=N[C@@H](CC(=O)NCCCCNC(=O)COc1cccc3c1C(=O)N(C1CCC(=O)NC1=O)C3=O)c1nnc(C)n1-2 (stereo partly drawn) [dBET1] | 8 | 9.3 | 9.5 |
| COc1cccc(-c2ccc(NC(=O)C3=C(C(=O)O)CCC3)c(F)c2)c1 [Vidofludimus] | 0.6 | 1.2 | 0.4 |
| Nc1nc(Cl)nc2c1ncn2[C@@H]1O[C@H](CO)[C@@H](O)[C@@H]1F [Clofarabine] | 12.9 | 13.8 | 12.1 |
| CC(C)Oc1ccc(C(=O)N[C@H](CNC(=O)CN(C)C)Cc2ccc(-c3cn4cccc([C@H](C)O)c4n3)cc2)cc1Cl | 12.8 | 15.8 | 10.7 |
| CC(C)n1cnc2c(NCCc3ccc(O)cc3)nc(-c3csc4ccccc34)nc21 [StemRegenin 1] | 0.9 | 1.5 | 2 |
| N#CC(c1ccnc(OCc2ccc(CN3CCOCC3)cc2)n1)c1nc2ccccc2s1 (stereo not drawn) [Bentamapimod] | 1.5 | 2.1 | 1.2 |
| CCCCCCCCc1ccc(CCC(N)(CO)CO)cc1 [Fingolimod] | 8.7 | 6.7 | 6.7 |
| CC(C)C[C@@H](C(=O)N[C@H](C(=O)OC1CCCC1)c1ccccc1)[C@H](O)C(=O)NO [Tosedostat] | 1.7 | 2.5 | 1.4 |
| N#Cc1ccnc(N2C(=O)CC[C@H]2C(=O)N(c2cncc(F)c2)[C@H](C(=O)NC2CC(F)(F)C2)c2ccccc2Cl)c1 [Ivosidenib] | 0 | 0 | 0 |
| O=C(NOCCO)c1ccc2cncn2c1Nc1ccc(I)cc1F [GDC-0623] | 0 | 0.3 | 1.4 |
| CC1(C)NC(=O)N(c2ccc([N+](=O)[O-])c(C(F)(F)F)c2)C1=O [Nilutamide] | 0 | 0 | 0 |
| COc1cc2ncnc(Oc3cccc(NC(=O)Nc4cc(C(C)(C)C(F)(F)F)on4)c3)c2cc1OC | 0 | 0 | 0 |
| CC(=O)O[C@@]12CO[C@@H]1C[C@H](O)[C@@]1(C)C(=O)[C@H](O)C3=C(C)[C@@H](OC(=O)[C@H](O)[C@@H](NC(=O)OC(C)(C)C)c4ccccc4)C[C@@](O)([C@@H](OC(=O)c4ccccc4)[C@H]21)C3(C)C [Docetaxel] | 23.2 | 27 | 19.3 |
| COc1cccc(OCCCN)c1-c1cc(Nc2cnc(C#N)cn2)n[nH]1 [Prexasertib] | 2.2 | 3.5 | 0.8 |
| Clc1ccc(Nc2nnc(Cc3ccncc3)c3ccccc23)cc1 [Vatalanib] | 0 | 0 | 0 |

| Structure (SMILES) | drug sensitivity score [1] | drug sensitivity score [2] | drug sensitivity score [3] |
| --- | --- | --- | --- |
| CS(=O)(=O)c1ccc(C(=O)Nc2ccc(Cl)c(-c3ccccn3)c2)c(Cl)c1 [Vismodegib] | 0 | 0 | 0 |
| C[C@@H]1COC(Nc2ccc3ncnc(Nc4ccc(OCc5nccs5)c(Cl)c4)c3c2)=N1 [Varlitinib] | 3.6 | 7.2 | 1.6 |
| CCCCNc1ncc(C(=O)NCc2ccc(-n3ccnc3)cc2)c(NC2CCC(O)CC2)n1 (stereo not drawn) [UNC2881] | 0 | 1.9 | 0 |
| COC(=O)C[C@](O)(CCCC(C)(C)O)C(=O)O[C@@H]1C(OC)=C[C@]23CCCN2CCc2cc4c(cc2[C@H]13)OCO4 [Omacetaxine] | 32.4 | 33.6 | 33.5 |
| Cc1ncc(-c2ccnc(Nc3ccc(S(C)(=O)=O)cc3)n2)n1C(C)C [AZD-5438] | 13.1 | 9.1 | 9.9 |
| CN(c1ncccc1CNc1nc(Nc2ccc3c(c2)CC(=O)N3)ncc1C(F)(F)F)S(C)(=O)=O | 5.8 | 6 | 4.4 |
| CN(C)CC#Cc1ccc(OCCCc2sc(N3CCc4cccc(C(=O)Nc5nc6ccccc6s5)c4C3)nc2C(=O)O)c(F)c1 | 0 | 0 | 0 |
| Nc1nc(OCc2cc(Br)cs2)c2[nH]cnc2n1 [Lomeguatrib] | 0 | 0 | 0 |
| O=C(Nc1ccncc1)C(=O)c1cn(Cc2ccc(Cl)cc2)c2ccccc12 [Indibulin] | 0 | 10.7 | 7.2 |
| CC[C@@]1(O)C(=O)OCc2c1cc1n(c2=O)Cc2cc3c(CN(C)C)c(O)ccc3nc2-1 [Topotecan] | 10.1 | 11.5 | 8.1 |
| CONC(=O)c1ccccc1Nc1cc(Nc2cc(C)nn2C(C)C)ncc1Cl | 0 | 1.2 | 0 |
| CC[C@@H]1CN(C(=O)NCC(F)(F)F)C[C@@H]1c1cnc2cnc3[nH]ccc3n12 [Upadacitinib] | 0 | 0 | 0 |
| COC(=O)c1ccc2c(c1)[nH]c1ncnc(NCCCN3CCCCC3)c12 [UM729] | 0.9 | 3 | 0 |
| CCNC(=O)CCC/C=C\C[C@@H]1[C@@H](/C=C/[C@@H](O)CCc2ccccc2)[C@H](O)C[C@@H]1O [Bimatoprost] | 0 | 0 | 0 |
| C[C@H]1Oc2cc(cnc2N)-c2c(nn(C)c2C#N)CN(C)C(=O)c2ccc(F)cc21 | 0 | 2.1 | 0.1 |
| COc1cc2c(cc1OCCCN1CCCC1)N=C(N)C21CCC1 [A-366] | 0 | 0 | 0 |
| CCCOc1ccn2c(C(C)=O)cc(-c3ccccc3S(C)(=O)=O)c2c1 [GSK2801] | 0 | 0 | 0 |
| CC[C@]1(O)C[C@H]2CN(CCc3c([nH]c4ccccc34)[C@@](C(=O)OC)(c3cc4c(cc3OC)N(C=O)[C@H]3[C@@](O)(C(=O)OC)[C@H](OC(C)=O)[C@]5(CC)C=CCN6CC[C@]43[C@@H]65)C2)C1 [Vincristine] | 20.3 | 23.1 | 20.2 |
